For assay [1], the system named is THP1 cells. The assay is described as follows: IFN-β secretion in THP1 cell culture (5 h). The conditions noted are these: Homo sapiens, THP-1, 5 h. It is filed as cell-based, human. How it is done:
The ability of compounds to stimulate the secretion of interferon-beta from THP1 cells was measured using a human IFN-β AlphaLISA kit (Perkin Elmer, Cat. No. AL265F). The basic protocol is as follows:
A Labcyte Echo 550 acoustic dispenser was used to transfer 120 nL of compound dissolved in DMSO into the wells of an empty, sterile 384-well microplate, (Corning, Cat. No. 3712). THP1 cells (American Type Culture Collection, Cat. No. TIB202) previously frozen in Recovery Medium (Life Technologies, Cat. No. 12648-010) were thawed and immediately diluted 10-fold into 37° C. assay medium (RPMI 1640+L-Glutamine & phenol red, Life Technologies, Cat. No. 11875-085; 0.5% heat inactivated fetal bovine serum, Sigma Aldrich, Cat. No. F4135; 1 mM Sodium Pyruvate, Life Technologies, Cat. No. 11360-070; lx non-essential amino acids; Life Technologies, Cat. No. 11140-050). The cell viability and count was ascertained using a Beckman Coulter V-Cell XR cell counter. The cells suspension was centrifuged at 200×g for 5 min at RT. Cells were resuspended to a density of 0.8×10^6/mL in 37° C. assay medium. Subsequent liquid transfers were performed using either a Matrix electronic multichannel pipette or an Agilent Bravo Automated Liquid Handling Platform.
The assay was started by dispensing 40 μL of the previously prepared cell suspension into the wells of the plate containing compounds. After 5 h incubation at 37° C., 5% CO2 in a humidified atmosphere, the plate of cells and compounds was centrifuged at 200×g for 5 min at RT. From each well, 5 μL of supernatant was transferred into corresponding wells of a white 384-well plate (Perkin Elmer, Cat. No. 6005620). To these supernatant-containing wells was added 10 μL of 5× Anti-Analyte Acceptor beads (50 μg/mL of AlphaLISA HiBlock Buffer) and incubated for 30 min at RT while shaking on an orbital plate shaker. To each well was added 10 μL of 5× Biotinylated Antibody Anti-analyte (5 nM in AlphaLISA HiBlock Buffer) and incubated on an orbital plate shaker for 60 min at RT or overnight at 4° C. To each well was added 25 μL of 2× SA-Donor beads (80 μg/mL in AlphaLISA HiBlock Buffer) and incubated for 30-45 min at RT in the dark while shaking on an orbital plate shaker. The plate was then read on a Perkin Elmer Envision (λex=680 nm, λem=[…]). The percent effect of the AlphaLISA signal at each compound concentration was calculated based on 30 uM cGAMP positive controls and 0.3% DMSO negative controls. The plot of percent effect versus the log of compound concentration was fit with a 4-parameter concentration response equation to calculate EC50 values. The test compounds were tested at concentrations 30000, 10000, 3333, 1111, 370.4, 123.4, 41.2, 13.7, 4.6, and 1.5 nM with 0.3% residual DMSO.
Compounds of the disclosure were evaluated for IFN-β secretion in THP1 cell culture as described above. The following table tabulates the biological data for these compounds as percent activation relative to 2′3′-cGAMP at the 30 μM concentration.

Assay [2] addresses full-length HAQ STING (Homo sapiens (Human), UniProt Q86WV6, G230A/H232R/R293Q/R71H). As to the kind of experiment: 3H-cGAMP filtration binding assay (HAQ STING). The conditions noted are these: competition with tritiated cGAMP, HAQ STING membrane. An excerpt:
The ability of compounds to bind STING is quantified by the ability to compete with tritiated cGAMP ligand for human STING receptor membrane using a radioactive filter-binding assay. The binding assay employs STING receptor obtained from Hi-Five cell membranes overexpressing full-length HAQ STING prepared in-house and tritiated cGAMP ligand also purified in-house.
The ability of compounds to bind STING is quantified by their ability to compete with tritiated cGAMP ligand for human STING receptor membrane using a radioactive filter-binding assay. The binding assay employs STING receptor obtained from Trichoplusia ni cell membranes (Tni; Expression Systems, cat #94-002F, www.exrpressionsystems.com) overexpressing full-length HAQ STING prepared in-house and tritiated cGAMP ligand also purified in-house.
The basic HAQ STING filtration assay protocol is as follows:
Compound and membrane then preincubated for 60 min at RT to allow compound binding to equilibrate. Following equilibration, 8 nM of [^3H] c-GAMP ligand was prepared by diluting into assay buffer, and 50 uL of this working stock was then manually added to each well of the assay plate. […] The filter plates were then dried at 55° C. for 30 min using a pressurized VWR oven before 30 uL of Ultima GoldF scintillate was added to each well. Tritium levels for each reaction well were then measured using a PerkinElmer TopCount plate reader.
After normalization to controls, the percent activity for each compound concentration was calculated by measuring the amount of remaining radioactivity. The plot of percent activity versus the log of compound concentration was fit with a 4-parameter dose response equation to calculate EC50 values.

Setting [3] is: IFN-β secretion, THP1 cells, 5 h, 30 μM, read-out: % Effect at 30 μM relative to 2′3′-cGAMP.

Each structure is given as a SMILES string. Like-named read-outs stand apart in the source and are kept apart here.

full-length HAQ STING, sequence (Q86WV6 other isoform, or with tags, fused parts or gaps, stated change not applied): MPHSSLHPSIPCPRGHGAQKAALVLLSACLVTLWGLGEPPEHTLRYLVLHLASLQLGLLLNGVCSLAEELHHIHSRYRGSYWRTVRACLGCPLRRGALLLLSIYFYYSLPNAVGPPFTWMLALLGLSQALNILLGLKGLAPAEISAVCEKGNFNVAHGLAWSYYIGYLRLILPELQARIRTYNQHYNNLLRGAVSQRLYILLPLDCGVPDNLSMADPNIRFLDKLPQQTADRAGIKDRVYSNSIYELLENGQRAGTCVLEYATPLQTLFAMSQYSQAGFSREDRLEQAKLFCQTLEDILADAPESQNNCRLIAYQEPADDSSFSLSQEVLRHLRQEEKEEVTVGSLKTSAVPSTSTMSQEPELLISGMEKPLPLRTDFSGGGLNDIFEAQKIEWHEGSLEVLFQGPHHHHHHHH

For the compound `Nc1nc2c(ncn2[C@@H]2O[C@@H]3COP(=O)(O)O[C@@H]4[C@H](F)[C@@H](COP(=O)(O)O[C@@H]2C3)O[C@H]4n2cnc3c(N)ncnc32)c(=O)[nH]1` [Example 10, 2-amino-9-[(1S,6S,8R,9R,14R,16R,17R)-16-(6-amino-9H-purin-9-yl)-17-fluoro-3,11-dihydroxy-3,11-dioxido-2,4,7,10,12,15-hexaoxa-3,11-diphosphatricyclo[12.2.1.1^6,9]octadec-8-yl]-1,9-dihydro-6H-purin-6-one], the activation at 30 µM in assay [1] (setting [3]) came out at 87%.

For the compound `C[C@@H]1OP(=O)(O)O[C@@H]2[C@H](F)[C@@H](COP(=O)(O)O[C@@H]3[C@H](O)[C@@H]1O[C@H]3n1cnc3c(N)ncnc31)O[C@H]2n1cnc2c(=O)[nH]c(N)nc21` [Example 8, 2-amino-9-[(1R,6R,8R,9S,13S,14S,16R,17R,18R)-16-(6-amino-9H-purin-9-yl)-18-fluoro-3,11,17-trihydroxy-13-methyl-3,11-dioxido-2,4,7,10,12,15-hexaoxa-3,11-diphosphatricyclo[12.2.1.16,9]octadec-8-yl]-1,9-dihydro-6H-purin-6-one], in assay [2], the half-maximal effective concentration (EC50) (in general, the concentration that produces a half-maximal response) came out at 102 nM. For the same compound, the activation at 30 µM in assay [1] (setting [3]) worked out at 36%.

In assay [2], `Nc1nc2c(ncn2[C@@H]2O[C@@H]3COP(=O)(O)O[C@@H]4[C@@H](F)[C@@H](COP(=O)(O)O[C@@H]2[C@@H]3F)O[C@H]4n2cnc3c(N)ncnc32)c(=O)[nH]1` [Example 13, 2-amino-9-[(1S,6R,8R,9S,14R,16R,17S,18R)-16-(6-amino-9H-purin-9-yl)-17,18-difluoro-3,11-dihydroxy-3,11-dioxido-2,4,7,10,12,15-hexaoxa-3,11-diphosphatricyclo[12.2.1.1^6,9]octadec-8-yl]-1,9-dihydro-6H-purin-6-one] yielded an EC50 of 11.2 nM. In assay [1] (setting [3]), the activation at 30 µM amounted to 128%.

The compound `Nc1ncnc2c1ncn2[C@@H]1O[C@@H]2COP(=O)(S)O[C@@H]3[C@H](O)[C@@H](COP(=O)(S)O[C@@H]1[C@@H]2O)O[C@H]3n1cnc2c(N)ncnc21` (stereo partly drawn) [Example 27, (1R,6R,8R,9R,14R,16R,17R,18R)-8,16-bis(6-amino-9H-purin-9-yl)-3,11-disulfanyl-2,4,7,10,12,15-hexaoxa-3,11-diphosphatricyclo[12.2.1.1^6,9]octadecane-17,18-diol 3,11-dioxide] gave a 50% effective concentration (EC50) in assay [2] of 6.6 nM. Also, the activation at 30 µM in assay [1] (setting [3]) was 76%.

On to `Nc1nc2c(ncn2[C@@H]2O[C@@H]3COP(=O)(S)OC4C(O)[C@@H](COP(=O)(S)OC2[C@@H]3O)O[C@H]4n2cnc3c(N)ncnc32)c(=O)[nH]1` (stereo in doubt) [Example 15, 2-amino-9-[(1R,6R,8R,9R,14R,16R,17R,18R)-16-(6-amino-9H-purin-9-yl)-17,18-dihydroxy-3,11-dioxido-3,11-disulfanyl-2,4,7,10,12,15-hexaoxa-3,11-diphosphatricyclo[12.2.1.1^6,9]octadec-8-yl]-1,9-dihydro-6H-purin-6-one], for which, in assay [1] (setting [3]), the activation at 30 µM came to 132%.

Take `Nc1nc2c(ncn2[C@@H]2O[C@@H]3COP(=O)(S)O[C@@H]4[C@H](O)[C@@H](COP(=O)(S)O[C@@H]2[C@@H]3O)O[C@H]4n2cnc3c(N)ncnc32)c(=O)[nH]1` (stereo partly drawn) [Example 14, 2-amino-9-[(1R,6R,8R,9R,14R,16R,17R,18R)-16-(6-amino-9H-purin-9-yl)-17,18-dihydroxy-3,11-dioxido-3,11-disulfanyl-2,4,7,10,12,15-hexaoxa-3,11-diphosphatricyclo[12.2.1.1^6,9]octadec-8-yl]-1,9-dihydro-6H-purin-6-one]: in assay [1] (setting [3]), the activation at 30 µM came out at 150%.

Compound `Nc1nc2c(ncn2[C@@H]2O[C@@H]3COP(=O)(O)O[C@@H]4C[C@@H](COP(=O)(O)O[C@@H]2[C@@H]3F)O[C@H]4n2cnc3c(N)ncnc32)c(=O)[nH]1` [Example 9, 2-amino-9-[(1R,6R,8R,9S,14S,16R,18R)-16-(6-amino-9H-purin-9-yl)-18-fluoro-3,11-dihydroxy-3,11-dioxido-2,4,7,10,12,15-hexaoxa-3,11-diphosphatricyclo[12.2.1.1^6,9]octadec-8-yl]-1,9-dihydro-6H-purin-6-one] came in with an EC50 in assay [2] of 3.7 nM. Moreover, the activation at 30 µM in assay [1] (setting [3]) stood at 115%.

In the case of `Nc1nc2c(ncn2[C@@H]2O[C@@H]3COP(=O)(O)O[C@@H]4[C@H](F)[C@@H](COP(=O)(O)O[C@@H]2[C@@H]3F)O[C@H]4n2cnc3c(N)ncnc32)c(=O)[nH]1` [Example 11, 2-amino-9-[(1S,6R,8R,9S,14R,16R,17R,18R)-16-(6-amino-9H-purin-9-yl)-17,18-difluoro-3,11-dihydroxy-3,11-dioxido-2,4,7,10,12,15-hexaoxa-3,11-diphosphatricyclo[12.2.1.1^6,9]octadec-8-yl]-1,9-dihydro-6H-purin-6-one], the 50% effective concentration (EC50) in assay [2] was less than 1 nM. In assay [1] (setting [3]), the activation at 30 µM is 131%.

Consider `Nc1nc2c(ncn2[C@@H]2O[C@@H]3COP(=O)(O)O[C@@H]4[C@H](O)[C@@H](COP(=O)(O)O[C@@H]2C3)O[C@H]4n2cnc3c(N)ncnc32)c(=O)[nH]1` [Example 2, 2-amino-9-[(1R,6S,8R,9R,14R,16R,17R)-16-(6-amino-9H-purin-9-yl)-3,11,17-trihydroxy-3,11-dioxido-2,4,7,10,12,15-hexaoxa-3,11-diphosphatricyclo[12.2.1.1^6,9]octadec-8-yl]-1,9-dihydro-6H-purin-6-one], for which the EC50 in assay [2] worked out at 18.2 nM. In addition, in assay [1] (setting [3]), the activation at 30 µM was 123%.

Consider `[N-]=[N+]=N[C@H]1[C@H]2OP(O)(=S)OC[C@H]3O[C@@H](n4cnc5c(=O)[nH]c(N)nc54)[C@H](OP(O)(=S)OC[C@H]1O[C@H]2n1cnc2c(N)ncnc21)[C@@H]3F` (single isomer, unassigned) [Example 18], for which the activation at 30 µM in assay [1] (read-out: % Effect at 30 μM relative to 2′3′-cGAMP, IFN-β secretion, THP1 cells, 5 h, 30 μM) amounted to 118%.

Turning to `Nc1nc2c(ncn2[C@@H]2O[C@@H]3COP(=O)(O)O[C@@H]4[C@H](O)[C@@H](COP(=O)(O)O[C@@H]2[C@@H]3N)O[C@H]4n2cnc3c(N)ncnc32)c(=O)[nH]1` [Example 32, 2-amino-9-[(1R,6S,8R,9R,14R,16R,17R,18R)-18-amino-16-(6-amino-9H-purin-9-yl)-3,11,17-trihydroxy-3,11-dioxido-2,4,7,10,12,15-hexaoxa-3,11-diphosphatricyclo[12.2.1.1^6,9]octadec-8-yl]-1,9-dihydro-6H-purin-6-one], in assay [2], the EC50 is 1.9 nM.

On to `Nc1nc2c(ncn2[C@@H]2O[C@@H]3COP(=O)(S)O[C@@H]4[C@H](O)[C@@H](COP(=O)(S)O[C@@H]2[C@@H]3O)O[C@H]4n2cnc3c(=O)[nH]c(N)nc32)c(=O)[nH]1` (single isomer, unassigned) [Example 25], for which, in assay [1] (setting [3]), the activation at 30 µM came to 89%.

(Values after US10738074B2, “Cyclic di-nucleotide compounds as STING agonists” (Merck Sharp & Dohme Corp., priority 2015, dated 2020).)
